# Laboratory results taken from PubChem BioAssay (NCI).
#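 Exposure lasted 48 hours, with cells grown in 96-well plates and compounds tested at five concentrations. TGI: concentration producing complete growth inhibition.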
# Assays:
# Experiment in all cases: inhibition of tumour cell growth, NCI panel, 48 h
# 786-0 renal = test system: 786-0 renal
# A498 renal = test system: A498 renal
# A549 NSCLC = test system: A549 NSCLC
# ACHN renal = test system: ACHN renal
# BT-549 breast = test system: BT-549 breast
# CAKI-1 renal = test system: CAKI-1 renal
# CCRF-CEM leukemia = test system: CCRF-CEM leukemia
# COLO 205 colon = test system: COLO 205 colon
# DU-145 prostate = test system: DU-145 prostate
# EKVX NSCLC = test system: EKVX NSCLC
# HCT-116 colon = test system: HCT-116 colon
# HCT-15 colon = test system: HCT-15 colon
# HL-60(TB) leukemia = test system: HL-60(TB) leukemia
# HOP-62 NSCLC = test system: HOP-62 NSCLC
# HOP-92 NSCLC = test system: HOP-92 NSCLC
# HS 578T breast = test system: HS 578T breast
# HT29 colon = test system: HT29 colon
# IGROV1 ovarian = test system: IGROV1 ovarian
# K-562 leukemia = test system: K-562 leukemia
# KM12 colon = test system: KM12 colon
# LOX IMVI melanoma = test system: LOX IMVI melanoma
# M14 melanoma = test system: M14 melanoma
# MALME-3M melanoma = test system: MALME-3M melanoma
# MCF7 breast = test system: MCF7 breast
# MDA-MB-231 breast = test system: MDA-MB-231 breast
# MDA-MB-435 = test system: MDA-MB-435
# MDA-N = test system: MDA-N
# MOLT-4 leukemia = test system: MOLT-4 leukemia
# NCI-H226 lung = test system: NCI-H226 lung
# NCI-H23 lung = test system: NCI-H23 lung
# NCI-H460 lung = test system: NCI-H460 lung
# NCI-H522 lung = test system: NCI-H522 lung
# NCI/ADR-RES ovarian = test system: NCI/ADR-RES ovarian
# OVCAR-3 ovarian = test system: OVCAR-3 ovarian
# OVCAR-4 ovarian = test system: OVCAR-4 ovarian
# OVCAR-5 ovarian = test system: OVCAR-5 ovarian
# OVCAR-8 ovarian = test system: OVCAR-8 ovarian
# PC-3 prostate = test system: PC-3 prostate
# RPMI-8226 leukemia = test system: RPMI-8226 leukemia
# RXF 393 renal = test system: RXF 393 renal
# SF-268 CNS = test system: SF-268 CNS
# SF-295 CNS = test system: SF-295 CNS
# SF-539 CNS = test system: SF-539 CNS
# SK-MEL-2 melanoma = test system: SK-MEL-2 melanoma
# SK-MEL-5 melanoma = test system: SK-MEL-5 melanoma
# SK-OV-3 ovarian = test system: SK-OV-3 ovarian
# SN12C renal = test system: SN12C renal
# SNB-19 CNS = test system: SNB-19 CNS
# SNB-75 CNS = test system: SNB-75 CNS
# SR leukemia = test system: SR leukemia
# SW-620 colon = test system: SW-620 colon
# T-47D breast = test system: T-47D breast
# TK-10 renal = test system: TK-10 renal
# U251 CNS = test system: U251 CNS
# UACC-257 melanoma = test system: UACC-257 melanoma
# UACC-62 melanoma = test system: UACC-62 melanoma
# UO-31 renal = test system: UO-31 renal
smiles,measurement,setting,value
Cn1c2cn[nH]c(=O)c2c2ccc3ccccc3c21,TGI,786-0 renal,42.1 µM
same,TGI,A498 renal,80 µM
same,TGI,A549 NSCLC,> 100 µM
same,TGI,ACHN renal,45.9 µM
same,TGI,BT-549 breast,> 100 µM
same,TGI,CAKI-1 renal,> 100 µM
same,TGI,CCRF-CEM leukemia,> 100 µM
same,TGI,COLO 205 colon,> 100 µM
same,TGI,DU-145 prostate,> 100 µM
same,TGI,EKVX NSCLC,75.3 µM
same,TGI,HCT-116 colon,> 100 µM
same,TGI,HCT-15 colon,> 100 µM
same,TGI,HL-60(TB) leukemia,> 100 µM
same,TGI,HOP-62 NSCLC,31.8 µM
same,TGI,HOP-92 NSCLC,60.8 µM
same,TGI,HS 578T breast,53.1 µM
same,TGI,HT29 colon,> 100 µM
same,TGI,IGROV1 ovarian,32.2 µM
same,TGI,K-562 leukemia,> 100 µM
same,TGI,KM12 colon,> 100 µM
same,TGI,LOX IMVI melanoma,53.8 µM
same,TGI,M14 melanoma,> 100 µM
same,TGI,MALME-3M melanoma,> 100 µM
same,TGI,MCF7 breast,> 100 µM
same,TGI,MDA-MB-231 breast,57.6 µM
same,TGI,MDA-MB-435,> 100 µM
same,TGI,MDA-N,> 100 µM
same,TGI,MOLT-4 leukemia,> 100 µM
same,TGI,NCI-H226 lung,> 100 µM
same,TGI,NCI-H23 lung,67.2 µM
same,TGI,NCI-H460 lung,> 100 µM
same,TGI,NCI-H522 lung,59.5 µM
same,TGI,NCI/ADR-RES ovarian,> 100 µM
same,TGI,OVCAR-3 ovarian,> 100 µM
same,TGI,OVCAR-4 ovarian,> 100 µM
same,TGI,OVCAR-5 ovarian,> 100 µM
same,TGI,OVCAR-8 ovarian,> 100 µM
same,TGI,PC-3 prostate,> 100 µM
same,TGI,RPMI-8226 leukemia,> 100 µM
same,TGI,RXF 393 renal,62.9 µM
same,TGI,SF-268 CNS,97.2 µM
same,TGI,SF-295 CNS,63.4 µM
same,TGI,SF-539 CNS,> 100 µM
same,TGI,SK-MEL-2 melanoma,46.7 µM
same,TGI,SK-MEL-5 melanoma,> 100 µM
same,TGI,SK-OV-3 ovarian,> 100 µM
same,TGI,SN12C renal,> 100 µM
same,TGI,SNB-19 CNS,> 100 µM
same,TGI,SNB-75 CNS,38.3 µM
same,TGI,SR leukemia,> 100 µM
same,TGI,SW-620 colon,> 100 µM
same,TGI,T-47D breast,> 100 µM
same,TGI,TK-10 renal,> 100 µM
same,TGI,U251 CNS,47.1 µM
same,TGI,UACC-257 melanoma,> 100 µM
same,TGI,UACC-62 melanoma,> 100 µM
same,TGI,UO-31 renal,70.6 µM
